Remaining activity data for 4 molecules are collected here from paper PMC4648050, “Discovery of Inhibitors of Trypanosoma brucei by Phenotypic Screening of a Focused Protein Kinase Library” (Chemmedchem, 2015).

Each structure is given as a SMILES string.

Common to all, as to type: biochemical, human/mammalian
Common to all, as to details: compound at 10 μM, read-out: % of activity respect of the control

The target of one test is PRK2 (Homo sapiens, UniProt Q16513). Briefly: Kinase panel: PRK2. As to the method: (§1) The DDU kinase-focused compound set contains lead-like scaffolds that are designed to target protein kinases; they have kinase hinge binding motifs. Four of the 1H-imidazopyrazinones were screened against a human/mammalian kinase panel at the University of Dundee (http://www.kinase-screen.mrc.ac.uk) at a concentration of 10 μM. At the time of testing the panel contained 79 mammalian kinases selected to provide a broad coverage of the mammalian kinome (∼500 kinases in the human genome).[3] None of the compounds were active against any of the kinases at 10 μM.

For a further test, the target named is T1, p38g MAPK (Homo sapiens, UniProt P53778).
T1 sequence (P53778 1-367): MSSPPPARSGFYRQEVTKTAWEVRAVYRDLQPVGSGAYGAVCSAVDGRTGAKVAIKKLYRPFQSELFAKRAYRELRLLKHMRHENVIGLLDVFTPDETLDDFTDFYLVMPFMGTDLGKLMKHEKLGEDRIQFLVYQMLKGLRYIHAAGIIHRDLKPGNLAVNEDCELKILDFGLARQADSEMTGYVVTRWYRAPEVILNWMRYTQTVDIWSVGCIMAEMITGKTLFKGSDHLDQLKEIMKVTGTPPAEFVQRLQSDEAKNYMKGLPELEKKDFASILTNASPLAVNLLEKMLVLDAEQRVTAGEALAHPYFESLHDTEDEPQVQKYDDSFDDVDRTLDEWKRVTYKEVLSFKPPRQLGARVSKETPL
Nature of the test: Kinase panel: p38g MAPK. As to the method: as §1

Another test concerns the target RSK1 (Homo sapiens, UniProt Q15418). Briefly: Kinase panel: RSK1. As to the method:
as §1

For another test, the target named is MNK2 (Homo sapiens, UniProt Q9HBH9). Briefly: Kinase panel: MNK2. As to the method: as §1
The target of another test is CDK2-Cyclin A (Homo sapiens, UniProt P24941). Nature of the test: Kinase panel: CDK2-Cyclin A. The protocol: as §1
Another test concerns the target T2, PKD1 (Homo sapiens, UniProt Q15139).
T2 sequence (Q15139 1-912): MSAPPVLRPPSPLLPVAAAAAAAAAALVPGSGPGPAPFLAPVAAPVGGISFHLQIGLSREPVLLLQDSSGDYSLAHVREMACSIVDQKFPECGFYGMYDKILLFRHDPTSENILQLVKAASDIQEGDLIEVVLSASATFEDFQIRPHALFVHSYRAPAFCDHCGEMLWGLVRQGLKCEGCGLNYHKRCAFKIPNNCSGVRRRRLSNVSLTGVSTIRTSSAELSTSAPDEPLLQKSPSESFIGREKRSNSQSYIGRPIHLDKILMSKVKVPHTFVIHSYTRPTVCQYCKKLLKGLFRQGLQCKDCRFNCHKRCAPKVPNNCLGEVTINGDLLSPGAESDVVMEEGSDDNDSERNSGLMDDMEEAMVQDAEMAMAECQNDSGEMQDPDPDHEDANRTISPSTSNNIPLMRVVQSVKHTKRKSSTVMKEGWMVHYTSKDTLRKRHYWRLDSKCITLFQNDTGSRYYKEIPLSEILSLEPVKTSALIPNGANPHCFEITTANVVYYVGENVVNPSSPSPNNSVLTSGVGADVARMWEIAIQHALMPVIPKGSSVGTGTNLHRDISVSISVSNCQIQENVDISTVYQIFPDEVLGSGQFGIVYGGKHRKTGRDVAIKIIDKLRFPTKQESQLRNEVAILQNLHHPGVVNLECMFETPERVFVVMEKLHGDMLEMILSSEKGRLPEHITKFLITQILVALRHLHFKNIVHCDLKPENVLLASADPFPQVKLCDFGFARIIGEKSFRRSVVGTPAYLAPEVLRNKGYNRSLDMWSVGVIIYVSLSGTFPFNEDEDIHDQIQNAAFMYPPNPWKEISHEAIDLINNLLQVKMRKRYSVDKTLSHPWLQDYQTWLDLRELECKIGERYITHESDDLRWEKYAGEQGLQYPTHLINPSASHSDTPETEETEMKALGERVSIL
Briefly: Kinase panel: PKD1. As to the method:
as §1

A further test concerns the target T3, IKKe (Homo sapiens, UniProt Q14164).
T3 sequence (Q14164 1-716): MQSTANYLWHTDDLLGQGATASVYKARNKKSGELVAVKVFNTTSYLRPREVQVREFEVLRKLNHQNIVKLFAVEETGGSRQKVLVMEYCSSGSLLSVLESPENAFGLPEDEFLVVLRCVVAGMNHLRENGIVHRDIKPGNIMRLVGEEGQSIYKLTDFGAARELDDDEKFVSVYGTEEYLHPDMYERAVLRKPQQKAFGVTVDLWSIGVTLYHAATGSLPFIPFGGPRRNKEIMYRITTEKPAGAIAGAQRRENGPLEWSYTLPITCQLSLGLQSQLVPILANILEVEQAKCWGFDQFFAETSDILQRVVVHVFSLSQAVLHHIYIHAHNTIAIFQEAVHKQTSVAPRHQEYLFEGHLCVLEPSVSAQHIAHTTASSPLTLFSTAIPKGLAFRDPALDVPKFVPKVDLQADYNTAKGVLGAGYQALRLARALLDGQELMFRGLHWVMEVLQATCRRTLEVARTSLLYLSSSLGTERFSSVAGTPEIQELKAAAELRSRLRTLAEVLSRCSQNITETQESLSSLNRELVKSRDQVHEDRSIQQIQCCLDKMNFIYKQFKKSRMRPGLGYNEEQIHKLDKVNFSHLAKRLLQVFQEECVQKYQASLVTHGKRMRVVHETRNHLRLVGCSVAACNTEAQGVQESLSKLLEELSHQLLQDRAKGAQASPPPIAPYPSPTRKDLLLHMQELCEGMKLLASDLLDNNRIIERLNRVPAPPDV
Briefly: Kinase panel: IKKe. As to the method:
as §1

Sequence of PRK2 (Q16513 whole entry): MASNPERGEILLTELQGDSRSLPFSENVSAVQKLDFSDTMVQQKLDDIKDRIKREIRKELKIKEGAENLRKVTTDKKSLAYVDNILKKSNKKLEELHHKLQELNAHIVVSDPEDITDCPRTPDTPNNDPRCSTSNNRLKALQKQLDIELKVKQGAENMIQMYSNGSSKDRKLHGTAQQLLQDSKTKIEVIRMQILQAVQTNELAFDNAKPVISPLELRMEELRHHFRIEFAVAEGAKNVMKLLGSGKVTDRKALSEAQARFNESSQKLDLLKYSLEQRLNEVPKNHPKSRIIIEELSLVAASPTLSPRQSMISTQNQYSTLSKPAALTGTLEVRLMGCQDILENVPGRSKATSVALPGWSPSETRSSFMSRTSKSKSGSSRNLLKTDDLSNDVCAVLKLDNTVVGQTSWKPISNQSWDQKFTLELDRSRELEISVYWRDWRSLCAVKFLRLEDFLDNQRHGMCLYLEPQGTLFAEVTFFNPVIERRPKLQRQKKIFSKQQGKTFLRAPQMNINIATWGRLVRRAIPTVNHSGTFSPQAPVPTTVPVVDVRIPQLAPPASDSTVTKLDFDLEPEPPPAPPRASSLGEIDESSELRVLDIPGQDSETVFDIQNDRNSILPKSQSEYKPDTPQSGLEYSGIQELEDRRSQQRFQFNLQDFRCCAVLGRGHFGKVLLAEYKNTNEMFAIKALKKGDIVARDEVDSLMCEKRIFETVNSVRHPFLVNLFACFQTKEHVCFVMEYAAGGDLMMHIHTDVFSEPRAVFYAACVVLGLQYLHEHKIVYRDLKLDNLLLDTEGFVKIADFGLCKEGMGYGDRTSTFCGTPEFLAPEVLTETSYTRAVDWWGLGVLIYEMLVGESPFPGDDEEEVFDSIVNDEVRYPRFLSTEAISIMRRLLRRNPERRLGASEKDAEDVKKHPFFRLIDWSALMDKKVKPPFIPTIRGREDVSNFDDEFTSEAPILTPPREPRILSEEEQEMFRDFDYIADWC
Sequence of RSK1 (Q15418 whole entry): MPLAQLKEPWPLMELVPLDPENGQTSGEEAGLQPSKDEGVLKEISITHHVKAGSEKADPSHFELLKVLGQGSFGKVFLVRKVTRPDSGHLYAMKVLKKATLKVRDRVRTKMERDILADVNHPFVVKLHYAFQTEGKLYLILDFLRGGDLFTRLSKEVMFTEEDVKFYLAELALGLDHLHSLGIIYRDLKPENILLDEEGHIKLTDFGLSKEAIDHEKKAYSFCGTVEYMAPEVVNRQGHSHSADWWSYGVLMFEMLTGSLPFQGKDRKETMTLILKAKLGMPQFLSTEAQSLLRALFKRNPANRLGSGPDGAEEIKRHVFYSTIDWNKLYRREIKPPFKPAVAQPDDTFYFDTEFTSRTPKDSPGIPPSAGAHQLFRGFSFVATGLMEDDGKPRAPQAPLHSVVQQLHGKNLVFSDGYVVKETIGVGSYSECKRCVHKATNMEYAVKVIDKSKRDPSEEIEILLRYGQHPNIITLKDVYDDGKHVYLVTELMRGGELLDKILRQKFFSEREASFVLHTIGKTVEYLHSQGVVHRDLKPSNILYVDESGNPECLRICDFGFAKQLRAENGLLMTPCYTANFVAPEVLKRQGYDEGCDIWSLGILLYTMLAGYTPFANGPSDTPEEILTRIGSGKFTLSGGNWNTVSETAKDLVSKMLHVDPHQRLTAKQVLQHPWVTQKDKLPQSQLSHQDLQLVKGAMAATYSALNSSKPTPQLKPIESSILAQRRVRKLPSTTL
Sequence of MNK2 (Q9HBH9 whole entry): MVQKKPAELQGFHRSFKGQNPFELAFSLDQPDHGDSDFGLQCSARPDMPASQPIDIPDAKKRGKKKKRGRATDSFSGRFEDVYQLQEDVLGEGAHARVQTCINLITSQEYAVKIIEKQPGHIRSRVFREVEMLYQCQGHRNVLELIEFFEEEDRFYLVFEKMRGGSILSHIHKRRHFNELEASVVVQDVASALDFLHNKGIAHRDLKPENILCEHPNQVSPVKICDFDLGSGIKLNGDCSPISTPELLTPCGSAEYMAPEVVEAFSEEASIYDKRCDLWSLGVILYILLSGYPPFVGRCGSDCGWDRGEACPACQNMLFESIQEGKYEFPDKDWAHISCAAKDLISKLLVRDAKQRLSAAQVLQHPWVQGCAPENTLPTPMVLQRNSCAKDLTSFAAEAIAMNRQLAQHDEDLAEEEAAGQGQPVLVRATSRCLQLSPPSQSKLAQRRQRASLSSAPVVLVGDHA

As for `CC(c1ccccc1)n1c(=O)[nH]c2ncc(-c3ccc(F)cc3)nc21` (stereo not shown) [Compound 1], the remaining activity at 10 µM at PRK2 stood at 111%; on p38g MAPK it was 98%; at RSK1, 96%; on MNK2 it was 106%; on CDK2-Cyclin A it was 89%; at PKD1, 55%. Also, the remaining activity at 10 µM on IKKe is 106%.
As for `O=c1[nH]c2ncc(-c3ccc(F)cc3)nc2n1CC1CC1` [Compound 10], the remaining activity at 10 µM at PRK2 came out at 99%; on p38g MAPK it was 94%; on RSK1, 85%; at MNK2, 99%; at CDK2-Cyclin A, 82%; on PKD1, 40%. The remaining activity at 10 µM on IKKe was 94%.
With `O=c1[nH]c2ncc(-c3ccc(F)cc3)nc2n1C1CCCCC1` [Compound 12, 1-Cyclohexyl-6-(4-fluorophenyl)-1H-imidazo[4,5-b]pyrazin-2(3H)-one], the remaining activity at 10 µM came to 112% on PRK2; 98% at p38g MAPK; 89% at RSK1; 103% at MNK2; 84% at CDK2-Cyclin A; 60% on PKD1. Besides, the remaining activity at 10 µM at IKKe is 88%.
With `C[C@H](c1ccccc1)n1c(=O)[nH]c2ncc(-c3ccccc3)nc21` [Compound 14, (R)-6-Phenyl-1-(1-phenylethyl)-1H-imidazo[4,5-b]pyrazin-2(3H)-one], the remaining activity at 10 µM came out at 97% on PRK2; 91% at p38g MAPK; 89% at RSK1; 97% on MNK2; 84% at CDK2-Cyclin A; 44% on PKD1. Besides, at IKKe, the remaining activity at 10 µM amounted to 91%.
